From patent US11932655B1, “12-bromo-2,16-dioxapentacyclo[7.7.5.01,21.03,8.010,15]henicosa3(8),10,12,14-tetraene-7,20-dione as an antimicrobial compound” (KING FAISAL UNIVERSITY, priority 2023, dated 2024)

Key:
Test in all cases: Antimicrobial activity, agar dilution, exposure-time test
Assay type in all cases: cell-based
Details in all cases: after 10, 20, 40 and 60 minutes at all dilutions 1:100 to 1:800
Staphylococcus aureus = test system: Staphylococcus aureus
Procedure: (§1) The antibacterial properties of the synthesized compound of 12-bromo-2,16-dioxapentacyclo[7.7.5.0^1,21.0^3,8.0^10,15]henicosa3(8),10,12,14-tetraene-7,20-dione were studied by the method of agar dilution. Test solutions of each compound was prepared in concentration of 1% using dimethylformamide as a solvent. Then they were diluted in physiological solution to obtain the final experimental dilutions of 1:100, 1:200, 1:400, and 1:800. The effect of these substances were compared with furacillin in a controllable study. The testing microbes used were gram positive bacteria Staphylococcus aureus, gram negative bacteria Pseudomonas aeruginosa, Escherichia coli, and Candida albicans fungus. The experiments used for this survey were meat-pentonlu agar (EPA) for cultivation of bacteria and Saburo environment for fungi. Each experiment used 1 mL of test solution on each plate for 500 minutes. Two drops of emulsified with microbes feel were added. All experimental samples were taken from the agar after 10, 20, 40, 60 minutes in the environment on the basis of Patrk planted. Bacteria were cultivated at a temperature of 37° C. for 1 day and the mushroom was kept in a thermostat for […] at a temperature of 28° C. Then results were checked. Those of the control and the antimicrobial activity for the synthesized compounds are listed in Table 1 below, with furacillin serving as a reference.

Pseudomonas aeruginosa = test system: Pseudomonas aeruginosa
Procedure: as §1

Escherichia coli = test system: Escherichia coli
Procedure: as §1

Candida albicans = test system: Candida albicans
Procedure: as §1

Measured: inhibition activity compared with Furacilin

O=C1CCCC2=C1C1c3cc(Br)ccc3OC3(CCCC(=O)C13)O2 (stereo not shown) [12-bromo-2,16-dioxapentacyclo[7.7.5.0^1,21.0^3,8.0^10,15]henicosa3(8),10,12,14-tetraene-7,20-dione]
higher inhibition activity: Staphylococcus aureus | Pseudomonas aeruginosa | Escherichia coli | Candida albicans
